Reference: US8729113B2 (Hoffmann-La Roche Inc., priority 2008, dated 2014)

molecular target: TAAR1 (Mus musculus (Mouse), UniProt Q923Y8); assay: Radioligand binding assay on TAAR1 (membranes of stably transfected HEK293 cells); settings: competition with [3H]-rac-2-(1,2,3,4-tetrahydro-1-naphthyl)-2-imidazoline, 4° C., 30 min
Experimental: For the construction of expression plasmids the coding sequences of human, rat and mouse TAAR 1 were amplified from genomic DNA essentially as described by Lindemann et al.. The Expand High Fidelity PCR System (Roche Diagnostics) was used with 1.5 mM Mg^2+ and purified PCR products were cloned into pCR2.1—TOPO cloning vector (Invitrogen) following the instructions of the manufacturer. PCR products were subcloned into the pIRESneo2 vector (BD Clontech, Palo Alto, Calif.), and expression vectors were sequence verified before introduction in cell lines.
HEK293 cells (ATCC # CRL-1573) were cultured essentially as described Lindemann et al. (2005). For the generation of stably transfected cell lines HEK293 cells were transfected with the pIRESneo2 expression plasmids containing the TAAR coding sequences (described above) with Lipofectamine 2000 (Invitrogen) according to the instructions of the manufacturer, and 24 hrs post transfection the culture medium was supplemented with 1 mg/ml G418 (Sigma, Buchs, Switzerland). After a culture period of about 10 d clones were isolated, expanded and tested for responsiveness to trace amines (all compounds purchased from Sigma) with the cAMP Biotrak Enzyme immunoassay (EIA) System (Amersham) following the non-acetylation EIA procedure provided by the manufacturer. […] Membrane Preparation and Radioligand Binding
Cells at confluence were rinsed with ice-cold phosphate buffered saline without Ca^2+ and Mg^2+ containing 10 mM EDTA and pelleted by centrifugation at 1000 rpm for 5 min at 4° C. The pellet was then washed twice with ice-cold phosphate buffered saline and cell pellet was frozen immediately by immersion in liquid nitrogen and stored until use at −80° C. Cell pellet was then suspended in 20 ml HEPES-NaOH (20 mM), pH 7.4 containing 10 mM EDTA, and homogenized with a Polytron (PT 3000, Kinematica) at 10,000 rpm for 10 s. The homogenate was centrifuged at 48,000×g for 30 min at 4° C. and the pellet resuspended in 20 ml HEPES-NaOH (20 mM), pH 7.4 containing 0.1 mM EDTA (buffer A), and homogenized with a Polytron at 10,000 rpm for 10 s. The homogenate was then centrifuged at 48,000×g for 30 min at 4° C. and the pellet resuspended in 20 ml buffer A, and homogenized with a Polytron at 10,000 rpm for 10 s. Protein concentration was determined by the method of Pierce (Rockford, Ill.). The homogenate was then centrifuged at 48,000×g for 10 min at 4° C., resuspended in HEPES-NaOH (20 mM), pH 7.0 including MgCl2 (10 mM) and […] homogenized with a Polytron at 10,000 rpm for 10 s.
Binding assay was performed at 4° C. in a final volume of 1 ml, and with an incubation time of 30 min. The radioligand [^3H]-rac-2-(1,2,3,4-tetrahydro-1-naphthyl)-2-imidazoline was used at a concentration equal to the calculated Kd value of 60 nM to give a bound at around 0.1% of the total added radioligand concentration, and a specific binding which represented approximately 70-80% of the total binding. Non-specific binding was defined as the amount of [^3H]-rac-2-(1,2,3,4-tetrahydro-1-naphthyl)-2-imidazoline bound in the presence of the appropriate unlabelled ligand (10 μM). Competing ligands were tested in a wide range of concentrations […]. […] Each experiment was performed in duplicate. All incubations were terminated by rapid filtration through UniFilter-96 plates (Packard Instrument Company) and glass filter GF/C, pre-soaked for at least 2 h in polyethylenimine 0.3%, and using a Filtermate 96 Cell Harvester (Packard Instrument Company). The tubes and filters were then washed 3 times with 1 ml aliquots of cold buffer B. Filters were not dried and soaked in Ultima gold (45 μl/well, Packard Instrument Company) and bound radioactivity was counted by a TopCount Microplate Scintillation Counter (Packard Instrument Company).

Chain of TAAR1 (Q923Y8 whole entry): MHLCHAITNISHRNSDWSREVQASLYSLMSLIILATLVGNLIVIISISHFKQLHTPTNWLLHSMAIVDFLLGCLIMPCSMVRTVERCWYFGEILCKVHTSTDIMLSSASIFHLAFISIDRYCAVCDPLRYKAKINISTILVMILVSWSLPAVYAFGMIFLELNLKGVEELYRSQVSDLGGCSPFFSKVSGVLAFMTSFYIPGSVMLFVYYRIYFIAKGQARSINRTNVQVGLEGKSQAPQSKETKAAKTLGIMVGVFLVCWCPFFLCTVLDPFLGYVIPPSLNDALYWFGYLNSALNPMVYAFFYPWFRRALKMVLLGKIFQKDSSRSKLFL

`CC(CC[C@H]1COC(N)=N1)c1ccc(F)cc1` (stereo partly drawn) [Example 17, (4S)-4-[3-(4-Fluoro-phenyl)-butyl]-4,5-dihydro-oxazol-2-ylamine] and `C[C@H](CC[C@H]1COC(N)=N1)c1ccc(F)cc1` [Example 116, (S)-4-[(R)-3-(4-Fluoro-phenyl)-butyl]-4,5-dihydro-oxazol-2-ylamine] are within 1.5-fold of each other in Ki: 0.0012 µM for the first, 0.0011 µM for the second.

Compared with `NC1=N[C@@H](CCC2(c3ccc(F)cc3)CC2)CO1` [Example 60, (S)-4-{2-[1-(4-Fluoro-phenyl)-cyclopropyl]-ethyl}-4,5-dihydro-oxazol-2-ylamine], `NC1=N[C@@H](CCC2(c3ccc(F)c(F)c3)CC2)CO1` [Example 108, (S)-4-{2-[1-(3,4-Difluoro-phenyl)-cyclopropyl]-ethyl}-4,5-dihydro-oxazol-2-ylamine] is 1.8-fold lower in Ki: 0.0025 µM for the first, 0.0014 µM for the second. The second binds more tightly here.

`CCC(CC[C@H]1COC(N)=N1)c1cccc(C(F)(F)F)c1` (stereo partly drawn) [Example 28, (4S)-4-[3-(3-Trifluoromethyl-phenyl)-pentyl]-4,5-dihydro-oxazol-2-ylamine] and `NC1=N[C@@H](CCOc2cccc(C(F)(F)F)c2)CO1` [Example 4, (S)-4-[2-(3-Trifluoromethyl-phenoxy)-ethyl]-4,5-dihydro-oxazol-2-ylamine] are within 1.5-fold of each other in Ki: 0.0013 µM for the first, 0.0009 µM for the second.

Going from `CC[C@@H](C[C@H]1COC(N)=N1)Oc1ccc(Cl)cc1F` [Example 123, (S)-4-[(S)-2-(4-Chloro-2-fluoro-phenoxy)-butyl]-4,5-dihydro-oxazol-2-ylamine] to `C[C@@H](C[C@H]1COC(N)=N1)Oc1ccc(Cl)cc1F` [Example 73, (S)-4-[(S)-2-(4-Chloro-2-fluoro-phenoxy)-propyl]-4,5-dihydro-oxazol-2-ylamine], the Ki falls from 0.0065 µM to 0.0021 µM (3.1-fold). The second binds more tightly here.

Going from `NC1=N[C@@H](CCOc2cccc(Br)c2)CO1` [Example 35, (S)-4-[2-(3-Bromo-phenoxy)-ethyl]-4,5-dihydro-oxazol-2-ylamine] to `Cc1cccc(OCC[C@H]2COC(N)=N2)c1` [Example 32, (S)-4-(2-m-Tolyloxy-ethyl)-4,5-dihydro-oxazol-2-ylamine], the Ki rises from 0.0001 µM to 0.0007 µM (7-fold). The first binds more tightly here.

Compared with `NC1=N[C@@H](CCC(F)(F)c2ccc(F)cc2)CO1` [Example 162, (S)-4-[3,3-Difluoro-3-(4-fluoro-phenyl)-propyl]-4,5-dihydro-oxazol-2-ylamine], `CC(C)(CC[C@H]1COC(N)=N1)c1ccc(Cl)cc1` [Example 26, (S)-4-[3-(4-Chloro-phenyl)-3-methyl-butyl]-4,5-dihydro-oxazol-2-ylamine] is 3.1-fold lower in Ki: 0.0022 µM for the first, 0.0007 µM for the second. The second binds more tightly here.

`C[C@@H](C[C@H]1COC(N)=N1)Oc1ccc(F)c(F)c1` [Example 69, (S)-4-[(S)-2-(3,4-Difluoro-phenoxy)-propyl]-4,5-dihydro-oxazol-2-ylamine] and `C[C@H](C[C@H]1COC(N)=N1)Oc1ccc(F)c(Cl)c1` [Example 85, (S)-4-[(R)-2-(3-Chloro-4-fluoro-phenoxy)-propyl]-4,5-dihydro-oxazol-2-ylamine] are within 1.5-fold of each other in Ki: 0.008 µM for the first, 0.0059 µM for the second.

First: CCC(CC[C@H]1COC(N)=N1)c1ccccc1 (stereo partly drawn) [Example 14, (4S)-4-(3-Phenyl-pentyl)-4,5-dihydro-oxazol-2-ylamine]
Second: CCC(CC[C@H]1COC(N)=N1)c1ccc(Cl)cc1 (stereo partly drawn) [Example 27, (4S)-4-[3-(4-Chloro-phenyl)-pentyl]-4,5-dihydro-oxazol-2-ylamine]
The Ki of the first is 3.3-fold higher: 0.0056 µM for the first, 0.0017 µM for the second. The second binds more tightly here.

Compared with `CC(C)c1cccc(OCC[C@H]2COC(N)=N2)c1` [Example 21, (S)-4-[2-(3-Isopropyl-phenoxy)-ethyl]-4,5-dihydro-oxazol-2-ylamine], `COC(=O)c1cccc(OCC[C@H]2COC(N)=N2)c1` [Example 127, 3-[2-((S)-2-Amino-4,5-dihydro-oxazol-4-yl)-ethoxy]-benzoic acid methyl ester] is 4.7-fold higher in Ki: 0.0017 µM for the first, 0.008 µM for the second.

Compared with `C[C@@H](C[C@H]1COC(N)=N1)Oc1ccc(F)cc1F` [Example 74, (S)-4-[(S)-2-(2,4-Difluoro-phenoxy)-propyl]-4,5-dihydro-oxazol-2-ylamine], `C[C@@H](C[C@H]1COC(N)=N1)Oc1cccc(Cl)c1` [Example 68, (S)-4-[(S)-2-(3-Chloro-phenoxy)-propyl]-4,5-dihydro-oxazol-2-ylamine] is 3.3-fold lower in Ki: 0.004 µM for the first, 0.0012 µM for the second. The second binds more tightly here.

Compared with `NC1=N[C@@H](CCOc2cccc(C(=O)OCc3ccccc3)c2)CO1` [Example 136, 3-[2-((S)-2-Amino-4,5-dihydro-oxazol-4-yl)-ethoxy]-benzoic acid benzyl ester], `CC[C@@H](C[C@H]1COC(N)=N1)Oc1cccc(OCc2ccccc2)c1` [Example 140, (S)-4-[(S)-2-(3-Benzyloxy-phenoxy)-butyl]-4,5-dihydro-oxazol-2-ylamine] is 2.2-fold higher in Ki: 0.0004 µM for the first, 0.0009 µM for the second. The first binds more tightly here.

Compared with `NC1=N[C@@H](CC2CC2c2ccccc2)CO1` (stereo partly drawn) [Example 23, (4S)-4-(2-Phenyl-cyclopropylmethyl)-4,5-dihydro-oxazol-2-ylamine], `NC1=N[C@@H](CCOc2ccccc2)CO1` [Example 1, (S)-4-(2-Phenoxy-ethyl)-4,5-dihydro-oxazol-2-ylamine] is 1.8-fold lower in Ki: 0.0031 µM for the first, 0.0017 µM for the second. The second binds more tightly here.

`CC[C@@H](C[C@H]1COC(N)=N1)Oc1ccc(F)cc1` [Example 117, (S)-4-[(S)-2-(4-Fluoro-phenoxy)-butyl]-4,5-dihydro-oxazol-2-ylamine] and `CC[C@@H](C[C@H]1COC(N)=N1)Oc1ccc(C(F)(F)F)cc1` [Example 121, (S)-4-[(S)-2-(4-Trifluoromethyl-phenoxy)-butyl]-4,5-dihydro-oxazol-2-ylamine] are within 1.5-fold of each other in Ki: 0.0032 µM for the first, 0.0038 µM for the second.

`CC[C@@H](C[C@H]1COC(N)=N1)Oc1ccc(F)c(Cl)c1` [Example 120, (S)-4-[(S)-2-(3-Chloro-4-fluoro-phenoxy)-butyl]-4,5-dihydro-oxazol-2-ylamine] and `CC[C@@H](C[C@H]1COC(N)=N1)Oc1cccc(Cl)c1` [Example 112] are within 1.5-fold of each other in Ki: 0.0014 µM for the first, 0.0012 µM for the second.

`CCC(CC[C@H]1COC(N)=N1)c1cc(F)cc(F)c1` (stereo partly drawn) [Example 124, (4S)-4-[3-(3,5-Difluoro-phenyl)-pentyl]-4,5-dihydro-oxazol-2-ylamine] and `NC1=N[C@@H](CCC2(c3cc(F)cc(F)c3)CC2)CO1` [Example 142, (S)-4-{2-[1-(3,5-Difluoro-phenyl)-cyclopropyl]-ethyl}-4,5-dihydro-oxazol-2-ylamine] are within 1.5-fold of each other in Ki: 0.001 µM for the first, 0.0013 µM for the second.

Going from `C[C@H](OC[C@H]1COC(N)=N1)c1ccc(F)cc1` [Example 155, (S)-4-[(S)-1-(4-Fluoro-phenyl)-ethoxymethyl]-4,5-dihydro-oxazol-2-ylamine] to `NC1=N[C@@H](CCOc2ccc(Cl)cc2)CO1` [Example 3, (S)-4-[2-(4-Chloro-phenoxy)-ethyl]-4,5-dihydro-oxazol-2-ylamine], the Ki falls from 0.0032 µM to 0.0005 µM (6.4-fold).

Compared with `NC1=N[C@@H](CCOc2ccc(Cl)c(Cl)c2)CO1` [Example 57, (S)-4-[2-(3,4-Dichloro-phenoxy)-ethyl]-4,5-dihydro-oxazol-2-ylamine], `NC1=N[C@@H](CCOc2ccc(Cl)c(F)c2)CO1` [Example 54, (S)-4-[2-(4-Chloro-3-fluoro-phenoxy)-ethyl]-4,5-dihydro-oxazol-2-ylamine] is 4.7-fold higher in Ki: 0.0003 µM for the first, 0.0014 µM for the second. The first binds more tightly here.

First: NC1=N[C@@H](CCOc2ccccc2Cl)CO1 [Example 6, (S)-4-[2-(2-Chloro-phenoxy)-ethyl]-4,5-dihydro-oxazol-2-ylamine]
Second: CC(CCc1ccccc1)[C@H]1COC(N)=N1 (stereo partly drawn) [Example 90, (4S)-4-(1-Methyl-3-phenyl-propyl)-4,5-dihydro-oxazol-2-ylamine]
The Ki of the first is 2-fold lower: 0.0041 µM for the first, 0.008 µM for the second.

For `CC[C@@H](C[C@H]1COC(N)=N1)Oc1ccc2ccccc2c1` [Example 153, (S)-4-[(S)-2-(Naphthalen-2-yloxy)-butyl]-4,5-dihydro-oxazol-2-ylamine], the Ki was 0.0011 µM.
